What all share (type): cell-based
For test [1], the system named is Staphylococcus aureus 29213. Briefly: Broth microdilution MIC, Staphylococcus aureus ATCC 29213. To be noted: for MIC / MIC90: Staphylococcus aureus; for MIC: ATCC29213, Table 2, read-out: MIC(90-100) SA-ATCC 29213; for MIC90: ATCC29212, Table 1, read-out: MIC90-100 SA ATCC 29212. The source says: (§1) See, NCCLS document M7-A5. Methods for Dilution Antimicrobial Susceptibility Tests for Bacteria That Grow Aerobically; Approved Standard-Fifth Edition. Volume 20, Number 2. January 2000, (ISBN 1-56238-394-9) and Lorian V. Antibiotics. Laboratory Medicine. 4th ed. Baltimore: Williams and Wilkins, pp. 52-111 (1996). For subsequent testing, the following strains have been used: Staphylococcus aureus NRS4 (992; HIP5836; New Jersey) (Smith et al., New Engl. J. Med. 340: 493-501 (1999); Tenover et al., J. Clin. Microbiol. 36: 1020-1027 (1998)), Staphylococcus aureus NRS3 (963sm; HIP5827; Michigan) (Smith et al., ibid.; Tenover et al., ibid.), Staphylococcus aureus NRS103 (Becker) (Karakawa and Vann, Sem. Infect. Dis. 4: 285 (1982), Staphylococcus aureus NRS102 (Reynolds) Karakawa and Vann, ibid; McMurray et al., JID 162: 759-762 (1990)), Staphylococcus epidermidis NRS101 (ATCC 35984), Streptococcus pneumoniae (ATCC 49619), Enterococcus faecalis (ATCC 51299), and Staphylococcus aureus (ATCC 43300.
(§2) Stock cultures of these strains were obtained by seeding colonies from overnight streak plates (Tryptic Soy Agar II (TSAII) and 5% sheep's blood (SB) agar plates: Becton Dickinson, CA#2211261) into sterile Mueller-Hinton Broth (MHB)(Becton Dickinson, CA#211443) and growing the suspensions to mid-late log phase in 13 mL screw-cap tubes. Glycerol (Sigma, CA#G-6279) was sterilized by autoclaving for 15 minutes at 121° C. in 6 mL volumes, and then stored at 2-8° C. This was diluted to 20% in dH2O, and then added 1:1 (250 μL:250 μL, 10% final glycerol concentration) to the logarithmically growing bacterial suspension of each strain. Tubes were frozen and stored at −70° C. Purity of the stock cultures was tested by thawing one tube of each strain in a water bath at 37° C. and plating them on TSAII with 5% SB. Plates were incubated overnight at 37° C. and colonies were examined for morphology. Growth curves and approximate CFU/mL were also obtained.
(§3) High purity substituted oxazolidinones prepared according to the method of the present invention and a ZYVOX standard (ZYVOX is a trade name for linezolid available from Pharmacia Corporation) were provided by Synthon Corporation, Monmouth Junction, N.J. Compounds were dissolved at 10 mg/mL in DMSO, as after a dilution of approx. 39.0 to reach the desired final starting concentration of 256 ug/ml, the concentration of DMSO is approximately 2.5%. Compounds were then stored at room temperature (25° C.) in the dark.
(§4) Antimicrobial susceptibility screening was as follows. All compounds were initially screened for activity in duplicate at 256 μg/mL (2.5% DMSO), including ZYVOX, the positive control for antimicrobial activity. A single well of bacterially inoculated 2.5% DMSO served as a positive control for bacterial growth, while a well of DMSO inoculated with of 50 μL of sterile 0.9% saline served as a negative growth control. Controls were prepared on every microplate, so that 46 was the maximum number of compounds that were screened per plate. Broth was pipetted into sterile microcentrifuge tubes, to which the compounds were then added (1:19.53 dilution or 2× final concentration). Each tube was vortexed, and 50 μL was immediately transferred to the microplate wells for each strain. Solubility was assessed by visual observation. MB (medium broth solubility) was recorded if the solution appeared only slightly cloudy. LB (low broth solubility) was recorded if the solution was extremely cloudy, and especially if larger, clumpy precipitates formed. Bacteria were grown as described above, although absorbance was measured at 650 nm and bacteria were diluted to an initial OD of 0.12-0.15. Bacteria were then further diluted 1:100 with 0.9% sterile saline. Within 15 minutes of this final dilution, 50 μL of this suspension was added to each well for a final volume of […], and a final bacterial concentration of 1×10^5 CFU/mL (except for the negative control well). Plates were grown as above and all observations were recorded. […]
(In general: In broth dilution the organism is exposed to a series of concentrations in liquid medium.)

Test [2] concerns Enterococcus faecalis (ATCC 51299). Kind of test: Broth microdilution MIC, Enterococcus faecalis ATCC 51299. To be noted: ATCC51299, vancomycin sensitive EF, ATCC 51299, read-out: MIC90-100 VS EF ATCC 51299.
Text: as §1, §2, §3, §4

Test [3] has as its system Staphylococcus aureus (ATCC 43300). Kind of test: Broth microdilution MIC, MR SA ATCC 43300. The settings on record: ATCC43300, methicillin resistant SA, read-out: MIC90-100 MR SA ATCC 43300.
Text: as §1, §2, §3, §4

The test system of test [4] is Staphylococcus aureus NRS3 (963sm; HIP5827; Michigan). Briefly: Broth microdilution MIC, MR SA Michigan. To be noted: strain Michigan; for MIC90: Staphylococcus aureus, NRS3, methicillin resistant SA, read-out: MIC90-100 MR SA Michigan.
Text: as §1, §2, §3, §4

In test [5] the test system is Staphylococcus aureus NRS4 (992; HIP5836; New Jersey). Kind of test: Broth microdilution MIC, MR SA New Jersey. The settings on record: strain New Jersey; for MIC90: Staphylococcus aureus, NRS4, methicillin resistant SA, read-out: MIC90-100 MR SA New Jersey.
Text: as §1, §2, §3, §4

In test [6] the test system is Enterococcus faecalis 29212. Kind of test: Broth microdilution MIC, Enterococcus faecalis ATCC 29212. The settings on record: EF, strain printed ATCC 29213; for MIC90: Enterococcus faecalis, ATCC29213, Table 1, read-out: MIC90-100 EF ATCC 29213.
Test [7] relates to Erythroid bone marrow cells. Briefly: Bone marrow cell growth inhibition, erythroid. The source says:
(§5) In general, many of the substituted oxazolidinones were as effective as ZYVOX.

Test [8] has as its system Myeloid bone marrow cells. Briefly: Bone marrow cell growth inhibition, myeloid.
Text: as §5

In test [9] the test system is Megakaryocytic bone marrow cells. Kind of test: Bone marrow cell growth inhibition, megakaryocytic.
Text: as §5

Test [10] deals with Staphylococcus aureus NRS103 (Becker). Kind of test: Broth microdilution MIC, Ref SA Becker. The settings on record: strain Becker, read-out: MIC90-100 Ref SA Becker.
Text: as §1, §2, §3, §4

Test [11] deals with Staphylococcus aureus NRS102 (Reynolds). Kind of test: Broth microdilution MIC, Pen. R SA Reynolds. To be noted: strain Reynolds, read-out: MIC90-100 Pen. R SA Reynolds.
Text: as §1, §2, §3, §4

≈ marks a conversion by molar mass, not a printed value. Where only a bound is given, the exact number is not on record here.

In general, MIC refers to the smallest concentration in the dilution series that meets the test's criterion for growth inhibition. What is called MIC90 is the lowest concentration that inhibits either 90% of growth or 90% of the strains tested, depending on the study. What is called IC50 is the concentration needed to halve the response being measured.

Consider `CCN1C[C@@H](COS(=O)(=O)c2ccc([N+](=O)[O-])cc2)OC1=O` [Compound 1192], for which the MIC in test [1] came out at 8 µg/mL (≈ 24.2 µM). Further, the “MIC90-100 SA ATCC 29212” value in test [1] (Table 1, SA, strain ATCC 29212) fell in the range of 4 to 8 µg/mL. Besides, the MIC90 in [2] was > 256 µg/mL; in test [3], 128 µg/mL (≈ 388 µM). Further, the “MIC90-100 MR SA Michigan” value in test [4] (methicillin resistant SA) was found to be 256 µg/mL (≈ 775 µM). Moreover, in test [5] (methicillin resistant SA), the “MIC90-100 MR SA New Jersey” value came to 256 µg/mL (≈ 775 µM). The “MIC90-100 EF ATCC 29213” value in [6] (Table 1) amounted to 250 µg/mL (≈ 757 µM). Besides, the IC50 in test [7] turned out to be 0.05 µg/mL (≈ 0.151 µM); in test [8] it was 5 µg/mL (≈ 15.1 µM); in test [9], 0.6 µg/mL (≈ 1.82 µM).
Turning to `CCN1C[C@H](CNSc2ccc([N+](=O)[O-])cc2)OC1=O` [Compound 1715], the MIC90 stood at 2 µg/mL (≈ 6.73 µM) in [1] (SA, strain ATCC 29212); 8 µg/mL (≈ 26.9 µM) in test [2]; 4 µg/mL (≈ 13.5 µM) in test [3]; 8 µg/mL (≈ 26.9 µM) in [10]; 32 µg/mL (≈ 108 µM) in test [11]; 3 µg/mL (≈ 10.1 µM) in test [4]. Moreover, the MIC90 worked out at 3 µg/mL (≈ 10.1 µM) in [5] and 4 µg/mL (≈ 13.5 µM) in [6]. Moreover, the IC50 in [7] was determined as 0.7 µg/mL (≈ 2.35 µM); in test [8], 5 µg/mL (≈ 16.8 µM); in test [9], 0.08 µg/mL (≈ 0.269 µM).
Regarding `CN(C)C(=O)CN1C[C@@H](COS(=O)(=O)c2ccc([N+](=O)[O-])cc2)OC1=O` [Compound 1021], the MIC90 in test [1] (SA, strain ATCC 29212) was 16 to 32 µg/mL (≈ 41.3 to 82.6 µM); in test [2], > 256 µg/mL; in test [3] it was 100 µg/mL (≈ 258 µM); in [4], 256 µg/mL (≈ 661 µM); in [5] it was 256 µg/mL (≈ 661 µM); in test [6], 250 µg/mL (≈ 645 µM). Further, the MIC in [1] worked out at 32 µg/mL (≈ 82.6 µM). Moreover, the IC50 in test [7] amounted to 20 µg/mL (≈ 51.6 µM); in [8], 20 µg/mL (≈ 51.6 µM); in test [9], 0.9 µg/mL (≈ 2.32 µM).
In the case of `CC(C)N1C[C@@H](CNSc2ccc([N+](=O)[O-])cc2)OC1=O` [Compound 1705], the MIC90 in test [1] (SA, strain ATCC 29212) was found to be 2 µg/mL (≈ 6.42 µM); in [2], 8 µg/mL (≈ 25.7 µM); in test [3] it was 4 µg/mL (≈ 12.8 µM); in test [10] it was 4 µg/mL (≈ 12.8 µM); in [11], 32 µg/mL (≈ 103 µM); in test [4] it was 2 µg/mL (≈ 6.42 µM). For the same compound, the MIC90 in test [5] amounted to 3 µg/mL (≈ 9.64 µM); in [6], 4 µg/mL (≈ 12.8 µM). For the same compound, the results for the concentration for half-maximal inhibition (IC50) in [7], in test [8] and in test [9] were 0.5 µg/mL (≈ 1.61 µM), 5 µg/mL (≈ 16.1 µM) and 0.08 µg/mL (≈ 0.257 µM), respectively.
As to `CC(=O)NC[C@H]1CN(c2ccc(N3CCOCC3)c(F)c2)C(=O)O1` [ZYVOX, linezolid, reference compound], the MIC90 in test [1] (SA, strain ATCC 29212) came to 2 µg/mL (≈ 5.93 µM); in test [2] it was 0.5 µg/mL (≈ 1.48 µM); in test [3], 1 µg/mL (≈ 2.96 µM); in test [10], 1 µg/mL (≈ 2.96 µM); in test [11], 1 µg/mL (≈ 2.96 µM); in [4], 2 µg/mL (≈ 5.93 µM). Also, the MIC90 in test [5] and in test [6] was 2 µg/mL (≈ 5.93 µM) throughout. For the same compound, the IC50 came out at 0.08 µg/mL (≈ 0.237 µM) in test [7], 20 µg/mL (≈ 59.3 µM) in test [8] and 4 µg/mL (≈ 11.9 µM) in [9].

The values above are taken from US20070265451A1, “Process for the preparation of oxazolidinones and method of use thereof” (Board of Trustees of Michigan State University, priority 2001, published 2007).
